Laboratory results published in the Deep4Chem optical property database.
Each block holds one compound with its values, some of them ahead of it.

Test: solvent given as SMILES

Structure (SMILES): CCCCCCOc1ccc(/C=C/c2ccc(N(c3ccc(/C=C/c4ccc(OCCCCCC)cc4)cc3)c3ccc(-c4nc5ccccc5nc4-c4ccc(N(c5ccc(/C=C/c6ccc(OCCCCCC)cc6)cc5)c5ccc(/C=C/c6ccc(OCCCCCC)cc6)cc5)cc4)cc3)cc2)cc1
absorption maximum (in C1CCOC1): 378 nm | absorption maximum (in Cc1ccccc1): 374 nm

Structure (SMILES): CC(C)(C)c1ccc(C(C)(C)C)c(N2C(=O)c3cccc4c(-c5ccc(-c6ccc([N+](=O)[O-])cc6)s5)ccc(c34)C2=O)c1
absorption maximum (in CO): 393 nm | absorption maximum (in CS(C)=O): 400 nm | absorption maximum (in Cc1ccccc1): 392 nm

Structure (SMILES): CC1=[N+]2C(=C(c3ccc(Br)cc3)c3ccc(C)n3[B-]2(F)F)C=C1c1cc2n(c1)[B-](F)(F)[N+]1=CC=CC1=C2c1c(C)cc(C)cc1C
absorption maximum (in C1CCCCC1): 598.5 nm | absorption maximum (in CCOC(C)=O): 601.5 nm

Structure (SMILES): CC(C)c1ccc(/C=C/c2nc3ccc(N(C)C)cc3s2)cc1
absorption maximum (in C1CCCCC1): 388 nm | absorption maximum (in CC#N): 392 nm

Structure (SMILES): CCCCN1C(=O)c2cccc3c(OC)ccc(c23)C1=O
absorption maximum (in CC#N): 376 nm | absorption maximum (in CS(C)=O): 484 nm | absorption maximum (in Cc1ccccc1): 362 nm

Structure (SMILES): CC(C)(C)c1ccc(C(C)(C)C)c(N2C(=O)c3cccc4c(-c5ccc(-c6ccccc6)s5)ccc(c34)C2=O)c1
absorption maximum (in CO): 403 nm | absorption maximum (in CS(C)=O): 405 nm | absorption maximum (in Cc1ccccc1): 398 nm

Structure (SMILES): CCCC1(CCC)c2ccccc2-c2ccc(-c3ccc4c(c3)C(CCC)(CCC)c3cc(-c5ccc6c(c5)C(CCC)(CCC)c5cc(-c7ccc8c(c7)C(CCC)(CCC)c7ccccc7-8)ccc5-6)ccc3-4)cc21
absorption maximum (in C1CCCCC1): 360 nm

Structure (SMILES): O=c1c2ccccc2n2c3ccccc3c(=O)c3cc(-c4ccccc4)cc1c32
absorption maximum (in CC#N): 447 nm | absorption maximum (in CCCCCC): 437 nm | absorption maximum (in CCCCOCCCC): 440 nm | absorption maximum (in CCOC(C)=O): 443 nm | absorption maximum (in CN(C)C=O): 450 nm | absorption maximum (in Cc1ccccc1): 445.76 nm

Structure (SMILES): CCCCCC(CC)C1(C(CC)CCCCC)c2ccccc2-c2ccc(C#Cc3cc(C#Cc4ccc5c(c4)C(C(CC)CCCCC)(C(CC)CCCCC)c4ccccc4-5)c4ccc5c(C#Cc6ccc7c(c6)C(C(CC)CCCCC)(C(CC)CCCCC)c6ccccc6-7)cc(C#Cc6ccc7c(c6)C(C(CC)CCCCC)(C(CC)CCCCC)c6ccccc6-7)c6ccc3c4c65)cc21 (stereo not given)
absorption maximum (in C1CCCCC1): 486 nm | absorption maximum (in C1CCOC1): 492 nm | absorption maximum (in CCOC(C)=O): 488 nm | absorption maximum (in CN(C)C=O): 496 nm | absorption maximum (in Cc1ccccc1): 488 nm | absorption maximum (in ClC(Cl)Cl): 491 nm | absorption maximum (in ClCCl): 492 nm

Structure (SMILES): N#Cc1nc2c3ccc(-c4ccc(N(c5ccccc5)c5ccccc5)cc4)cc3c3cc(-c4ccc(N(c5ccccc5)c5ccccc5)cc4)ccc3c2nc1C#N
absorption maximum (in Cc1ccccc1): 460 nm

Structure (SMILES): CN(C)c1ccc2c(-c3ccc(N)cc3C(=O)[O-])c3ccc(=[N+](C)C)cc-3oc2c1
absorption maximum (in CCO): 533 nm | absorption maximum (in O): 544 nm

Structure (SMILES): COc1ccc(-c2c3cc4ccccc4cc3c(-c3ccc(OC)cc3)c3cc4ccccc4cc23)cc1
absorption maximum (in ClCCl): 602 nm

Structure (SMILES): COc1cccc2cc(-c3ccc([N+](=O)[O-])cc3)c(=N)oc12
absorption maximum (in C1CCOC1): 339 nm | absorption maximum (in CC#N): 332 nm | absorption maximum (in CS(C)=O): 335 nm | absorption maximum (in ClC(Cl)Cl): 332 nm

Second part, the compound after the results:

absorption maximum (in C1CCOC1): 343 nm
Structure (SMILES): CC(=O)c1ccc(-c2ccc3c(c2)C(=O)c2cc(-c4ccc(C(C)=O)cc4)ccc2-3)cc1

absorption maximum (in ClCCl): 384 nm
Structure (SMILES): CCOc1ccc(/C=C/c2nc(N3CCOCC3)c3c([n+]2[O-])CCCC3)cc1

absorption maximum (in ClCCl): 346 nm
Structure (SMILES): F[B-]1(F)Oc2ccc3ccccc3c2-c2c3c(c4c([n+]21)CCc1ccccc1-4)CCc1ccccc1-3

absorption maximum (in ClC(Cl)Cl): 367 nm
Structure (SMILES): c1ccc(-c2nc(-c3ccccc3)c(N(c3ccccc3)c3ccccc3)s2)cc1

absorption maximum (in O): 444 nm
Structure (SMILES): CC[n+]1c(-c2ccccc2)c2cc(N)ccc2c2ccc(NC(N)=[NH2+])cc21

absorption maximum (in ClCCl): 393 nm
Structure (SMILES): O=C(NCc1ccccc1)c1sc(-c2ccc(-c3cc(C4CC4)c(C(=O)NCc4ccccc4)s3)s2)cc1C1CC1

absorption maximum (in ClCCl): 383 nm
Structure (SMILES): COc1ccc(-c2cc3c(ccc4sc5ccc6sc(-c7ccc(C#N)cc7)cc6c5c43)s2)cc1

absorption maximum (in ClCCl): 385 nm
Structure (SMILES): CCOC(=O)c1ccc(C2CC(c3cccc4ccccc34)=NN2c2ccc(C)cc2)cc1 (stereo not given)
